According to the supplement of paper PMC12076712:
± gives the standard deviation of the averaged measurements.

Experiments:
Test in all cases: pIC50, kinobeads binding competition
Settings in all cases: cell material: Jurkat lysate
[1] = biological target: T1, CDKL5 (UniProt O76039)
T1 sequence (whole entry): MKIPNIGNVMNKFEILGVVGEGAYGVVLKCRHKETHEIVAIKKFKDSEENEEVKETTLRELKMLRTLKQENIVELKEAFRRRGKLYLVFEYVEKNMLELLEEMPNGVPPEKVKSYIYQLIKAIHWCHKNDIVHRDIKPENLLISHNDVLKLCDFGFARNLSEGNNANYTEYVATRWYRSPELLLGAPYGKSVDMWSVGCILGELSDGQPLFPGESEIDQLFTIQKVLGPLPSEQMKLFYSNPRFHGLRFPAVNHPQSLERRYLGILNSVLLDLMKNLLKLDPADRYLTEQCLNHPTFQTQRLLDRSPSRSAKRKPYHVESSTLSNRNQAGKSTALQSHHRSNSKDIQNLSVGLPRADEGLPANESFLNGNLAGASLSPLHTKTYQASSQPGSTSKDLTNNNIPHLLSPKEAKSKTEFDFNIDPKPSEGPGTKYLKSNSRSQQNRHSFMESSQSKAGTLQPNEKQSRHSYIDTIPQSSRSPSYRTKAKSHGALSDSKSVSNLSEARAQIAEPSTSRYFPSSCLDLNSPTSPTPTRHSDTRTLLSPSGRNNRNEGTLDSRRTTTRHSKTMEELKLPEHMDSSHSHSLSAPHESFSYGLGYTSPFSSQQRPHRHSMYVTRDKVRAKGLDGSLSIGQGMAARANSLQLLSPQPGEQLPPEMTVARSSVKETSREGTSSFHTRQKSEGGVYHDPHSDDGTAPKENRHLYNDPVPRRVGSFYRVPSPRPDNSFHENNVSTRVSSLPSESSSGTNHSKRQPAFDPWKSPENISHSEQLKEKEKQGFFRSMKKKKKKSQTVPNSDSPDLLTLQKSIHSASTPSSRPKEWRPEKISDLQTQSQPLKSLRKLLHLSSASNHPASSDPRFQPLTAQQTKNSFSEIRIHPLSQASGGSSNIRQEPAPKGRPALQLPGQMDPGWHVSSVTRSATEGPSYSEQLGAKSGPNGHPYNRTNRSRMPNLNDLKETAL

[2] = biological target: T2, MASTL (UniProt Q96GX5)
T2 sequence (whole entry): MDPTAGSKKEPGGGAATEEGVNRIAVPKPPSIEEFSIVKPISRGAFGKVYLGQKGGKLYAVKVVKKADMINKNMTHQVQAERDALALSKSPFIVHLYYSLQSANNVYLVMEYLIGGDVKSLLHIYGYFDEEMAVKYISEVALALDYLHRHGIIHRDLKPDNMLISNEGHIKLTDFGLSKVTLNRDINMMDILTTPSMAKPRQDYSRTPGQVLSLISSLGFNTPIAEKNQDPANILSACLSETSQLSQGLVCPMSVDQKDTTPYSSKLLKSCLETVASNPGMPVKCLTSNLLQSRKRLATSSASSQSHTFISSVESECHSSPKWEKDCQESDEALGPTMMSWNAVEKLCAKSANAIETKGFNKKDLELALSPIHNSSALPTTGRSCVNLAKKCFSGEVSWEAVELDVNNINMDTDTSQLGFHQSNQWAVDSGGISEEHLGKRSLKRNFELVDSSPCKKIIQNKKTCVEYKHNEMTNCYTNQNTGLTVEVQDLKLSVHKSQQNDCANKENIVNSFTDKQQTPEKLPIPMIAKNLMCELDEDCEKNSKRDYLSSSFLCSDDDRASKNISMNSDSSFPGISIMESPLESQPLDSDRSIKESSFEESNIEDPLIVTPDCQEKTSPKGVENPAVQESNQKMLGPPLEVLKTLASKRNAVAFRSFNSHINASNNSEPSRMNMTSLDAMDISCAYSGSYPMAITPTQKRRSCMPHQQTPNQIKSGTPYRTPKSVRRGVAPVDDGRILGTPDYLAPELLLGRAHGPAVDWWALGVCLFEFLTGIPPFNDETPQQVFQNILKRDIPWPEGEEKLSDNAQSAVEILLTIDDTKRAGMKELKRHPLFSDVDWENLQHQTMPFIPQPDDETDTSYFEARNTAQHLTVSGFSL

[3] = biological target: STK39 (UniProt Q9UEW8)
[4] = biological target: T3, TP53RK (UniProt Q96S44)
T3 sequence (whole entry): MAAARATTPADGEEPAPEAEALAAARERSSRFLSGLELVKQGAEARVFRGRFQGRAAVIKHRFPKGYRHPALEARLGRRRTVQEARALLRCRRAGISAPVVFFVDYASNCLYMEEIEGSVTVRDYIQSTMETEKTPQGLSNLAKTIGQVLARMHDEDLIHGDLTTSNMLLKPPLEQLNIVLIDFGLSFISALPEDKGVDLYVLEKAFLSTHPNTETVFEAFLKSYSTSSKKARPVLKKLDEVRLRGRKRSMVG

[5] = biological target: UniProt O75460
UniProt O75460, sequence (O75460 whole entry, looked up): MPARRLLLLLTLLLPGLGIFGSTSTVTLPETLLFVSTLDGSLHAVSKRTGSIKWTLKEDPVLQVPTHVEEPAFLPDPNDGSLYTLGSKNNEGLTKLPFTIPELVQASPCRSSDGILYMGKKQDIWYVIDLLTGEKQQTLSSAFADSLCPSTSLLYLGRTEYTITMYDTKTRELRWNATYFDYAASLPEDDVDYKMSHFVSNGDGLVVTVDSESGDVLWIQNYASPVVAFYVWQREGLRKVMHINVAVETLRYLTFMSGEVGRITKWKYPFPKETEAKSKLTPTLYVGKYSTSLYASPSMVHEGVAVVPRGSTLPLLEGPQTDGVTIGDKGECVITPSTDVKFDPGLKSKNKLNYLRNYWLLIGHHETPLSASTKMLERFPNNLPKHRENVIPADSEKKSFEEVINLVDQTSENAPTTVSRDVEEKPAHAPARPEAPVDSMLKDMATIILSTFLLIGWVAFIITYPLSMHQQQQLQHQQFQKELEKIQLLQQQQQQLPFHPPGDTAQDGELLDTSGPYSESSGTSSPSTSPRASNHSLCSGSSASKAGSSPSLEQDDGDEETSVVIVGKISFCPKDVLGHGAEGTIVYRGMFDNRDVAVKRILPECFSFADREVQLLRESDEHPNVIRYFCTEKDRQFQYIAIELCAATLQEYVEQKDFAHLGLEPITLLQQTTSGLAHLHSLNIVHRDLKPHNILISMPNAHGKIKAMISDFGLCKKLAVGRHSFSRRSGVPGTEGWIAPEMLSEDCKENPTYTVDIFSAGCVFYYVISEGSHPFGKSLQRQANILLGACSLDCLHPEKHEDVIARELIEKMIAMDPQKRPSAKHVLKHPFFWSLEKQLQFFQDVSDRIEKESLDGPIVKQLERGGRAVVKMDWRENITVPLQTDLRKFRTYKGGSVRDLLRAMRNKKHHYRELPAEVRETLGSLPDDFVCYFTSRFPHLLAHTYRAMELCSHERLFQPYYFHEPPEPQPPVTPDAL

[6] = biological target: UniProt P07947
UniProt P07947, sequence (P07947 whole entry, looked up): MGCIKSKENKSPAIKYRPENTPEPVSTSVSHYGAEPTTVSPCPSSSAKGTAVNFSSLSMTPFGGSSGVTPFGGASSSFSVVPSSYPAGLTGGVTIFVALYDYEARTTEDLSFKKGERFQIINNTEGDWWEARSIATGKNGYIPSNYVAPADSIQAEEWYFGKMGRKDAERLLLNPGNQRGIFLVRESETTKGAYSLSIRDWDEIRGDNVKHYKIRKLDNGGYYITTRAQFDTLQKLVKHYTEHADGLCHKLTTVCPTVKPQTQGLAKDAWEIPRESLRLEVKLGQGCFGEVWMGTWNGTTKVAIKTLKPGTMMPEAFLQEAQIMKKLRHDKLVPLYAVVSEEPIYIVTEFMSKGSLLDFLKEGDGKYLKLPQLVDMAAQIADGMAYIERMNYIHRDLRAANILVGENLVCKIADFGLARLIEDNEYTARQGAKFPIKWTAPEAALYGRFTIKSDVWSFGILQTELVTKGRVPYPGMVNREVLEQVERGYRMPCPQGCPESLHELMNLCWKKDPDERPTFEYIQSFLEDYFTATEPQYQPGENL

[7] = biological target: T4, UniProt Q13188
T4 sequence (whole entry): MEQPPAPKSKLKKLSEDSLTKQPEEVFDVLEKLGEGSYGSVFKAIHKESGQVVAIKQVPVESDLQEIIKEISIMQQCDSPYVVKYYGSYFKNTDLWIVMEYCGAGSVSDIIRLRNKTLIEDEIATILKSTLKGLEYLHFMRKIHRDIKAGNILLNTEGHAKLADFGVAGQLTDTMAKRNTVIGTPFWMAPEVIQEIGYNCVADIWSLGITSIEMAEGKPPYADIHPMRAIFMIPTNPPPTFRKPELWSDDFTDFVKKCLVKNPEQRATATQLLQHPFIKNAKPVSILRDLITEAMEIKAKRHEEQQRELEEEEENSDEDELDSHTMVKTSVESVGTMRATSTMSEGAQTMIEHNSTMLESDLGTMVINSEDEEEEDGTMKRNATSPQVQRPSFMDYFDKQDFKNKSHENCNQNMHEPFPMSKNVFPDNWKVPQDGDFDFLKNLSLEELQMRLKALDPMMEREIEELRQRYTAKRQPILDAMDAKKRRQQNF

pIC50 [1]: 6.485 ± 0.035
pIC50 [2]: < 4.52
pIC50 [3]: 5.015 ± 0.021
pIC50 [4]: < 4.52
pIC50 [5]: < 4.52
pIC50 [6]: < 4.52
pIC50 [7]: < 4.52
SMILES: CCc1cnn2c(NCc3ccc[n+]([O-])c3)cc(N3CCCC[C@H]3CCO)nc12 [dinaciclib]
